# Laboratory results reported in patent publication US10597388B2, “Pyridazinone herbicides” (FMC CORPORATION, priority 2014, dated 2020).
# How the values were obtained:
# Type in all cases: in vivo
# [1] = test system: barnyardgrass (Echinochloa crus-galli); test: Test A greenhouse herbicide test, pre- and postemergence
# Summary of the method: (§1)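 Visual injury ratings, 0 (no effect) to 100 (complete control), versus untreated plants after roughly 10 d in a greenhouse. Compounds, formulated in a surfactant-containing non-phytotoxic solvent, were sprayed on loam–sand soil after sowing (pre) or on one- to two-leaf plants 2–10 cm tall (post).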
# [2] = test system: corn (Zea mays); test: as above; conditions: Postemergence; for Corn plant response rating: 0 is no effect, 100 is complete control
# Summary of the method: as §1
# [3] = test system: foxtail, giant (giant foxtail, Setaria faberii); test: as above
# Summary of the method: as §1
# [4] = test system: kochia (Kochia scoparia); test: as above
# Summary of the method: as §1
# [5] = test system: pigweed (Amaranthus retroflexus); test: as above
# Summary of the method: as §1
# [6] = test system: ragweed (common ragweed, Ambrosia elatior); test: as above
# Summary of the method: as §1
# [7] = test system: ryegrass, Italian (Italian ryegrass, Lolium multiflorum); test: as above
# Summary of the method: as §1
# [8] = test system: wheat (Triticum aestivum); test: as above; conditions: Postemergence; for Wheat plant response rating: 0 is no effect, 100 is complete control
# Summary of the method: as §1
# [9] = test system: blackgrass (Alopecurus myosuroides); test: Test A greenhouse herbicide test, postemergence; conditions: for Blackgrass plant response rating: 0 is no effect, 100 is complete control
# Summary of the method: (§2)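 Seedlings in a loam soil and sand mix received formulated compound postemergence at the one- to two-leaf stage. Greenhouse holding lasts approximately 10 d, then injury is scored visually relative to untreated plants, 0 meaning no effect and 100 complete control.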
# [10] = test system: galium (catchweed bedstraw, Galium aparine); test: Test A greenhouse herbicide test, postemergence; conditions: for Galium plant response rating: 0 is no effect, 100 is complete control
# Summary of the method: as §2
# [11] = test system: barnyardgrass (Echinochloa crus-galli); test: Test B flooded paddy test; conditions: 250 g ai/ha, Flood; visual rating on scale of 0 to 100 where 0 is no effect and 100 is complete control; 13 to 15 d after treatment
# Summary of the method: (§3)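 Ratings use a 0-100 visual scale, where 100 is complete control, and compare treated plants with controls after 13 to 15 d of greenhouse growth. Compound went straight into paddy water kept 3 cm over the soil surface, applied to seedlings at the 2-leaf stage.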
# [12] = test system: ducksalad (Heteranthera limosa); test: Test B flooded paddy test; conditions: 250 g ai/ha, Flood; visual rating on scale of 0 to 100 where 0 is no effect and 100 is complete control; 13 to 15 d after treatment
# Summary of the method: as §3
# [13] = test system: rice (Oryza sativa); test: Test B flooded paddy test; conditions: 250 g ai/ha, Flood; visual rating on scale of 0 to 100 where 0 is no effect and 100 is complete control; 13 to 15 d after treatment
# Summary of the method: as §3
# [14] = test system: sedge, umbrella (small-flower umbrella sedge, Cyperus difformis); test: Test B flooded paddy test; conditions: 250 g ai/ha, Flood; visual rating on scale of 0 to 100 where 0 is no effect and 100 is complete control; 13 to 15 d after treatment
# Summary of the method: as §3
# [15] = Postemergence, 125 g ai/ha, 0 to 100 scale, 0 no effect, 100 complete control
# [16] = Postemergence, 500 g ai/ha, visual rating after approx. 10 d, 0 to 100 scale (0 no effect, 100 complete control)
# [17] = Preemergence, 125 g ai/ha, visual injury rating, 0 to 100 scale (0 no effect, 100 complete control), approx. 10 d
# [18] = Preemergence, 500 g ai/ha, 0 to 100 scale where 0 is no effect and 100 is complete control
# [19] = 125 g ai/ha, 0 to 100 scale, 0 no effect, 100 complete control
# [20] = 500 g ai/ha, visual rating after approx. 10 d, 0 to 100 scale (0 no effect, 100 complete control)
# [21] = Postemergence, 125 g ai/ha, 0 to 100 scale where 0 is no effect and 100 is complete control
# [22] = Postemergence, 500 g ai/ha, 0 to 100 scale, 0 is no effect, 100 is complete control
# [23] = Preemergence, 125 g ai/ha, 0 to 100 scale where 0 is no effect and 100 is complete control
# [24] = Preemergence, 500 g ai/ha, 0 to 100 scale, 0 no effect, 100 complete control
# [25] = 125 g ai/ha, 0 to 100 scale where 0 is no effect and 100 is complete control
smiles,measurement,setting,value
Cc1n[nH]c(=O)c(-c2cccc3ccccc23)c1OC(F)F [Compound 175],"Plant response rating, Barnyardgrass",[1]; [15],0
same,"Plant response rating, Barnyardgrass",[1]; [16],0
same,"Plant response rating, Barnyardgrass",[1]; [17],0
same,"Plant response rating, Barnyardgrass",[1]; [18],0
same,"Plant response rating, Corn",[2]; [19],0
same,"Plant response rating, Corn",[2]; [20],20
same,"Plant response rating, Foxtail, Giant",[3]; [15],0
same,"Plant response rating, Foxtail, Giant",[3]; [16],0
same,"Plant response rating, Foxtail, Giant",[3]; [17],0
same,"Plant response rating, Foxtail, Giant",[3]; [18],0
same,"Plant response rating, Kochia",[4]; [15],0
same,"Plant response rating, Kochia",[4]; [16],0
same,"Plant response rating, Kochia",[4]; [17],0
same,"Plant response rating, Kochia",[4]; [18],20
same,"Plant response rating, Pigweed",[5]; [15],0
same,"Plant response rating, Pigweed",[5]; [16],0
same,"Plant response rating, Pigweed",[5]; [17],0
same,"Plant response rating, Pigweed",[5]; [18],60
same,"Plant response rating, Ragweed",[6]; [15],0
same,"Plant response rating, Ragweed",[6]; [16],0
same,"Plant response rating, Ragweed",[6]; [17],0
same,"Plant response rating, Ragweed",[6]; [18],20
same,"Plant response rating, Ryegrass, Italian",[7]; [15],20
same,"Plant response rating, Ryegrass, Italian",[7]; [16],30
same,"Plant response rating, Ryegrass, Italian",[7]; [17],20
same,"Plant response rating, Ryegrass, Italian",[7]; [18],20
same,"Plant response rating, Wheat",[8]; [19],0
same,"Plant response rating, Wheat",[8]; [20],20
same,"Plant response rating, Blackgrass",[9]; [19],0
same,"Plant response rating, Blackgrass",[9]; [20],20
same,"Plant response rating, Galium",[10]; [19],0
same,"Plant response rating, Galium",[10]; [20],0
same,"Plant response rating, Barnyardgrass",[11],0
same,"Plant response rating, Ducksalad",[12],0
same,"Plant response rating, Rice",[13],0
same,"Plant response rating, Sedge, Umbrella",[14],0
Cc1ccc(-c2c(O)cnn(C)c2=O)c2ccccc12 [Compound 50],"Plant response rating, Barnyardgrass",[1]; [21],0
same,Barnyardgrass plant response rating,[1]; [22],0
same,Barnyardgrass plant response rating,[1]; [23],0
same,"Plant response rating, Barnyardgrass",[1]; [24],0
same,"Plant response rating, Corn",[2]; [25],0
same,Corn plant response rating,"[2]; 500 g ai/ha, 0 to 100 scale",0
same,"Plant response rating, Foxtail, Giant",[3]; [21],0
same,"Foxtail, Giant plant response rating",[3]; [22],0
same,"Foxtail, Giant plant response rating",[3]; [23],0
same,"Plant response rating, Foxtail, Giant",[3]; [24],0
same,"Plant response rating, Kochia",[4]; [21],0
same,Kochia plant response rating,[4]; [22],20
same,Kochia plant response rating,[4]; [23],0
same,"Plant response rating, Kochia",[4]; [24],0
same,"Plant response rating, Pigweed",[5]; [21],20
same,Pigweed plant response rating,[5]; [22],50
same,Pigweed plant response rating,[5]; [23],0
same,"Plant response rating, Pigweed",[5]; [24],0
same,"Plant response rating, Ragweed",[6]; [21],0
same,Ragweed plant response rating,[6]; [22],20
same,Ragweed plant response rating,[6]; [23],0
same,"Plant response rating, Ragweed",[6]; [24],0
same,"Plant response rating, Ryegrass, Italian",[7]; [21],20
same,"Ryegrass, Italian plant response rating",[7]; [22],40
same,"Ryegrass, Italian plant response rating",[7]; [23],0
same,"Plant response rating, Ryegrass, Italian",[7]; [24],10
same,"Plant response rating, Wheat",[8]; [25],0
same,Wheat plant response rating,"[8]; 500 g ai/ha, 0 to 100 scale",0
same,"Plant response rating, Blackgrass",[9]; [25],0
same,Blackgrass plant response rating,"[9]; 500 g ai/ha, 0 to 100 scale",10
same,"Plant response rating, Galium",[10]; [25],60
same,Galium plant response rating,"[10]; 500 g ai/ha, 0 to 100 scale",80
same,"Plant response rating, Barnyardgrass",[11],0
same,"Plant response rating, Ducksalad",[12],0
same,"Plant response rating, Rice",[13],0
same,"Plant response rating, Sedge, Umbrella",[14],0
Cc1cc(C)c2sc(C)c(-c3c(OC(=O)C(C)(C)C)c(C)nn(C)c3=O)c2c1 [Compound 43],"Plant response rating, Barnyardgrass",[1]; [21],0
same,Barnyardgrass plant response rating,[1]; [22],30
same,Barnyardgrass plant response rating,[1]; [23],0
same,"Plant response rating, Barnyardgrass",[1]; [24],10
same,"Plant response rating, Corn",[2]; [25],0
same,Corn plant response rating,"[2]; 500 g ai/ha, 0 to 100 scale",0
same,"Plant response rating, Foxtail, Giant",[3]; [21],0
same,"Foxtail, Giant plant response rating",[3]; [22],70
same,"Foxtail, Giant plant response rating",[3]; [23],0
same,"Plant response rating, Foxtail, Giant",[3]; [24],50
same,"Plant response rating, Kochia",[4]; [21],0
same,Kochia plant response rating,[4]; [22],10
same,Kochia plant response rating,[4]; [23],50
same,"Plant response rating, Kochia",[4]; [24],20
same,"Plant response rating, Pigweed",[5]; [21],0
same,Pigweed plant response rating,[5]; [22],10
same,Pigweed plant response rating,[5]; [23],0
same,"Plant response rating, Pigweed",[5]; [24],10
same,"Plant response rating, Ragweed",[6]; [21],0
same,Ragweed plant response rating,[6]; [22],0
same,Ragweed plant response rating,[6]; [23],0
same,"Plant response rating, Ragweed",[6]; [24],10
same,"Plant response rating, Ryegrass, Italian",[7]; [21],40
same,"Ryegrass, Italian plant response rating",[7]; [22],60
same,"Ryegrass, Italian plant response rating",[7]; [23],10
same,"Plant response rating, Ryegrass, Italian",[7]; [24],70
same,"Plant response rating, Wheat",[8]; [25],0
same,Wheat plant response rating,"[8]; 500 g ai/ha, 0 to 100 scale",0
same,"Plant response rating, Blackgrass",[9]; [25],30
same,Blackgrass plant response rating,"[9]; 500 g ai/ha, 0 to 100 scale",80
same,"Plant response rating, Galium",[10]; [25],50
same,Galium plant response rating,"[10]; 500 g ai/ha, 0 to 100 scale",90
same,"Plant response rating, Barnyardgrass",[11],0
same,"Plant response rating, Ducksalad",[12],0
same,"Plant response rating, Rice",[13],0
same,"Plant response rating, Sedge, Umbrella",[14],0
